Laboratory results as given in the supplement of paper PMC10307832.

What was measured:
Experiment in all cases: relative viability (nuclei count vs DMSO), 5 days (fraction); higher = more cells survive
Afatinib + Luminespib = compound: CN(C)C/C=C/C(=O)Nc1cc2c(Nc3ccc(F)c(Cl)c3)ncnc2cc1O[C@H]1CCOC1 [Afatinib] + CCNC(=O)c1noc(-c2cc(C(C)C)c(O)cc2O)c1-c1ccc(CN2CCOCC2)cc1 [Luminespib] (partner 0.01 µM)
Summary of the method: (§1)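 Lung cancer cell lines, seeded in 1536-well plates, were treated the following day by pin tool with a single drug or with five library-drug doses (not always all listed) in √10 steps on top of a fixed anchor-drug dose. Cells were fixed and nuclei stained in one step after 5 days, and nuclei were counted. Relative viability is the nuclei count for treated wells divided by that for vehicle wells, reported as medians of duplicate plates.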

Afatinib + Bortezomib = compound: CN(C)C/C=C/C(=O)Nc1cc2c(Nc3ccc(F)c(Cl)c3)ncnc2cc1O[C@H]1CCOC1 [Afatinib] + CC(C)C[C@H](NC(=O)[C@H](Cc1ccccc1)NC(=O)c1cnccn1)B(O)O [Bortezomib] (partner 0.002 µM)
Summary of the method: as §1

Afatinib + Dasatinib = compound: CN(C)C/C=C/C(=O)Nc1cc2c(Nc3ccc(F)c(Cl)c3)ncnc2cc1O[C@H]1CCOC1 [Afatinib] + Cc1nc(Nc2ncc(C(=O)Nc3c(C)cccc3Cl)s2)cc(N2CCN(CCO)CC2)n1 [Dasatinib] (partner 0.075 µM)
Summary of the method: as §1

Afatinib + Palbociclib = compound: CN(C)C/C=C/C(=O)Nc1cc2c(Nc3ccc(F)c(Cl)c3)ncnc2cc1O[C@H]1CCOC1 [Afatinib] + CC(=O)c1c(C)c2cnc(Nc3ccc(N4CCNCC4)cn3)nc2n(C2CCCC2)c1=O [Palbociclib] (partner 0.5 µM)
Summary of the method: as §1

Cell Line | relative viability (Afatinib + Luminespib; first compound 0.005 µM) | relative viability (Afatinib + Luminespib; first compound 0.01581 µM) | relative viability (Afatinib + Luminespib; first compound 0.05 µM) | relative viability (Afatinib + Luminespib; first compound 0.1581 µM) | relative viability (Afatinib + Luminespib; first compound 0.5 µM) | relative viability (Afatinib + Bortezomib; first compound 0.005 µM) | relative viability (Afatinib + Bortezomib; first compound 0.01581 µM) | relative viability (Afatinib + Bortezomib; first compound 0.05 µM) | relative viability (Afatinib + Bortezomib; first compound 0.1581 µM) | relative viability (Afatinib + Bortezomib; first compound 0.5 µM) | relative viability (Afatinib + Dasatinib; first compound 0.005 µM) | relative viability (Afatinib + Dasatinib; first compound 0.01581 µM) | relative viability (Afatinib + Dasatinib; first compound 0.05 µM) | relative viability (Afatinib + Dasatinib; first compound 0.1581 µM) | relative viability (Afatinib + Dasatinib; first compound 0.5 µM) | relative viability (Afatinib + Palbociclib; first compound 0.005 µM) | relative viability (Afatinib + Palbociclib; first compound 0.01581 µM) | relative viability (Afatinib + Palbociclib; first compound 0.05 µM) | relative viability (Afatinib + Palbociclib; first compound 0.1581 µM) | relative viability (Afatinib + Palbociclib; first compound 0.5 µM)
HOP-62 | 1.04 | 0.977 | 0.968 | 0.994 | 0.89 | 0.69 | 0.723 | 0.731 | 0.915 | 0.724 | 0.701 | 0.639 | 0.731 | 0.648 | 0.693 | 0.415 | 0.431 | 0.523 | 0.48 | 0.445
NCI-H1915 | 0.807 | 0.848 | 0.772 | 0.743 | 0.596 | 0.994 | 1 | 0.938 | 1 | 0.952 | 0.361 | 0.347 | 0.313 | 0.301 | 0.304 | 0.564 | 0.539 | 0.526 | 0.506 | 0.491
NCI-H3122 | 0.103 | 0.0816 | 0.0898 | 0.0996 | 0.0859 | 1.05 | 1.02 | 1.06 | 0.967 | 1.04 | 0.95 | 0.778 | 0.675 | 0.739 | 0.553 | 0.179 | 0.184 | 0.174 | 0.182 | 0.187
NCI-H1651 | 0.923 | 0.817 | 1.03 | 0.835 | 0.726 | 1.08 | 0.912 | 0.926 | 1.02 | 0.884 | 0.483 | 0.426 | 0.407 | 0.386 | 0.381 | 0.561 | 0.508 | 0.501 | 0.495 | 0.459
NCI-H838 | 0.346 | 0.291 | 0.272 | 0.217 | 0.248 | 0.869 | 0.958 | 1.01 | 0.667 | 1.05 | 0.33 | 0.319 | 0.331 | 0.203 | 0.269 | 0.216 | 0.227 | 0.242 | 0.214 | 0.233
SK-LU-1 | 0.19 | 0.206 | 0.233 | 0.193 | 0.193 | 1.07 | 1.28 | 1.33 | 1.28 | 1.09 | 0.179 | 0.203 | 0.211 | 0.175 | 0.222 | 0.355 | 0.416 | 0.413 | 0.396 | 0.4
NCI-H441 | 0.442 | 0.431 | 0.325 | 0.249 | 0.222 | 0.59 | 0.642 | 0.864 | 0.632 | 0.313 | 0.574 | 0.488 | 0.573 | 0.435 | 0.402 | 0.234 | 0.231 | 0.163 | 0.183 | 0.207
NCI-H650 | 0.841 | 0.816 | 0.791 | 0.814 | 0.788 | 1.07 | 0.802 | 0.957 | 0.949 | 0.597 | 0.559 | 0.428 | 0.481 | 0.599 | 0.411 | 0.343 | 0.34 | 0.395 | 0.331 | 0.336
